Data: patent US10501801B2, “Identification of tumor-protective epitopes for the treatment of cancers” (THE UNIVERSITY OF CONNECTICUT, priority 2012, dated 2019)
Ends that are not written are not given here.

target: H-2 K^d (Mus musculus, UniProt P01902); test: Binding of peptides to purified H-2 K^d (inhibition of radiolabeled standard peptide); settings: not given
Procedure: Binding assays. Binding of peptides to H-2 K^d was determined using quantitative assays based on the inhibition of binding of a radiolabeled standard peptide to purified MHC molecules, essentially as known in the art. […] Under the conditions utilized, where [label]<[MHC] and IC50≥[MHC], the measured IC50 values are reasonable approximations of the KD values.

Molecule	IC50 [µM]
CC[C@H](C)[C@H](N)C(=O)N[C@@H](Cc1ccc(O)cc1)C(=O)NCC(=O)N[C@H](C(=O)N[C@H](C(=O)N[C@@H](C)C(=O)N[C@@H](CCCNC(=N)N)C(=O)N[C@@H](CC(N)=O)C(=O)N[C@@H](CCCNC(=N)N)C(=O)N[C@@H](C)C(=O)N[C@@H](CC(C)C)C(=O)O)C(C)C)C(C)C [Dis312.1, I(y/D)GVVARNRAL]	> 70
AYAKQFAA [Ube4a.2, A(y/D)AKQFAA]	> 70
AYILAALTKL [Trim26.1]	0.0011
AYILAALTKLQ [Trim26.2]	> 70
GFHGCIHEVL [Slit3]	> 70
GYSVLHLAI [Nfkb1, G(y/D)SVLHLAI]	1.61
HYLQGSNA [Fiz1, H(y/D)LQGSNA]	> 70
HYLSSILRL [Pacs2, HYLS(s/A)ILRL]	1.27
LYHTRPTAL [Kdm4b, L(y/D)HTRPTAL]	> 70
LYVSKLNGP [Galnt1, L(y/D)VSKLNGP]	> 70
NYLLSLVAVML [Serinc1]	20.9
PALKSEEKTL [Stau1.3]	> 70
PYKRLKAEPA [Prrc2a]	0.261
SYCEPALNQA [Ncdn]	> 70
SYMLQALCI [Tnpo3, (sy/LD)MLQALCI]	0.146
VYLTCRLEKPA [Gapdh]	> 70

same assay, conditions: mutated peptide; Table 5; read-out: Measured IC50 for K^d Mut/WT: Mut

Molecule	IC50 [µM]
ELQGLLEDE(l/R) (ELQGLLEDEL; not fully specified; printed as ELQGLLEDE(l/R); listed as Mus musculus) [Ccdc136]	> 70
KLQRQYRSPRL [Mast2]	10.1
PYLTQYAI [Dhx8.2, P(y/D)LTQYAI]	> 70
VFPGLMEL [Atxn10.2, VFPGLME(l/R)]	> 70

More lines, now with the values ahead:

IC50 [µM]	Molecule
10	AYILAALTKLQ [Zfp236.2, E(y/D)LDLQTQG]
> 70	AYRLEGDRS [Dcaf6, A(y/D)RLEGDRS]
> 70	D(y/D)VPMEQPRP (DYVPMEQPRP; not fully specified; listed as Mus musculus) [Alkbh6.3]
> 70	DYVPMEQPR [Alkbh6.2, D(y/D)VPMEQPR]
> 70	QVFPGLME(l/R) (QVFPGLMEL; not fully specified; printed as QVFPGLME(l/R); listed as Mus musculus) [Atxn10.1]
> 70	SWSSRRSLLG(l/R) (SWSSRRSLLGL; not fully specified; listed as Mus musculus) [9430016H08Rik]

same assay, conditions: wild type counterpart peptide; Table 4; read-out: Measured IC50 for K^d Mut/WT: WT

Molecule	IC50 [µM]
AYCETCWE(l/W) (AYCETCWEL; not fully specified; printed as AYCETCWE(l/W); cysteine pairing not given here; listed as Mus musculus) [Apc]	0.06
CYAKVKEQL [Ssx2ip, CYAK(v/L)KEQL]	0.0032
HYINMILPI [Ufsp2, HYINM(i/S)LPI]	< 0.0001
YYVPLLKRVP(l/S) (YYVPLLKRVPL; not fully specified; printed as YYVPLLKRVP(l/S); listed as Mus musculus) [Alms1.2]	1.49

same assay, conditions: wild type counterpart peptide; Table 5; read-out: Measured IC50 for K^d Mut/WT: WT

Molecule	IC50 [µM]
ALKSEEKTL [Stau1.4]	> 70
AYAKQFAAI [Ube4a.1, A(y/D)AKQFAAI]	> 70
ELQGLLEDE(l/R) (ELQGLLEDEL; not fully specified; printed as ELQGLLEDE(l/R); listed as Mus musculus) [Ccdc136]	4.54
LYDVDAAF [Cpsf2, L(y/D)DVDAAF]	> 70
PYLTQYAI [Dhx8.2, P(y/D)LTQYAI]	> 70
TTTPGGRPPYL [Sipa113]	> 70

Now from value to molecule:

IC50 [µM]	Molecule
> 70	AYILAALTKLQ [Zfp236.2, E(y/D)LDLQTQG]
> 70	AYRLEGDRS [Dcaf6, A(y/D)RLEGDRS]
2.96	D(y/D)VPMEQPRPP (DYVPMEQPRPP; not fully specified; listed as Mus musculus) [Alkbh6.4]
> 70	DYVPMEQP [Alkbh6.1, D(y/D)VPMEQP]
51.2	DYVPMEQPR [Alkbh6.2, D(y/D)VPMEQPR]
> 70	EYLDLQTQ [Zfp236.1, E(y/D)LDLQTQ]
> 70	KPALKSEEKTL [Stau1.2]
> 70	LKSEEKTL [Stau1.1, LKSEEKT(l/P)]
> 70	LYEAGVTDE [Tpst2.2, L(y/D)EAGVTDE]
0.012	LYYERIHKKML [Ugdh]
6.26	P(y/D)LTQYAIIM (PYLTQYAIIM; not fully specified; listed as Mus musculus) [Dhx8.4]
1.65	P(y/D)LTQYAIIML (PYLTQYAIIML; not fully specified; listed as Mus musculus) [Dhx8.1]
1.42	PYLTQYAII [Dhx8.3, P(y/D)LTQYAII]
7.05	QVFPGLME(l/R) (QVFPGLMEL; not fully specified; printed as QVFPGLME(l/R); listed as Mus musculus) [Atxn10.1]
5.11	SEDKIKAIL [Rangap1]
> 70	SWSSRRSLLG(l/R) (SWSSRRSLLGL; not fully specified; listed as Mus musculus) [9430016H08Rik]
